# From PubChem BioAssay AID1963960 (Molecular Pharmacology Branch, DTP, NCI, 2024)
# Test system: MDA-MB-468 spheroids with HUVEC/MSC, viability
# Test: Anticancer human tumor MDA-MB-468 cell line growth inhibition [PI3K];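 further: spheroids exposed to agents for seven days before readout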;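 on viability, T/C: 100% = DMSO vehicle control viability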
# Conditions: for IC50: curve of first compound; for viability, T/C: stronger effect = lower value
# In short: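 High-throughput combination screen: PI3K inhibitors crossed with targeted small molecules on complex spheroids of tumor cells, HUVEC and MSCs at 37 degrees C, 5% CO2. Top concentration was at or near clinical Cmax (otherwise 10 microM), with half-log decrements.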
# [1] = second compound 0.0316 µM, first compound 0.0316 µM
# [2] = second compound 0.0316 µM, first compound 0.1 µM
# [3] = second compound 0.0316 µM, first compound 0.316 µM
# [4] = second compound 0.0316 µM, first compound 1 µM
# [5] = second compound 0.0316 µM, first compound 3.16 µM
# [6] = second compound 0.0316 µM, first compound 10 µM
# [7] = second compound 0.1 µM, first compound 0.0316 µM
# [8] = second compound 0.1 µM, first compound 0.1 µM
# [9] = second compound 0.1 µM, first compound 0.316 µM
# [10] = second compound 0.1 µM, first compound 1 µM
# [11] = second compound 0.1 µM, first compound 3.16 µM
# [12] = second compound 0.1 µM, first compound 10 µM
# [13] = second compound 0.316 µM, first compound 0.0316 µM
# [14] = second compound 0.316 µM, first compound 0.1 µM
# [15] = second compound 0.316 µM, first compound 0.316 µM
# [16] = second compound 0.316 µM, first compound 1 µM
# [17] = second compound 0.316 µM, first compound 3.16 µM
# [18] = second compound 0.316 µM, first compound 10 µM
# [19] = second compound 1 µM, first compound 0.0316 µM
# [20] = second compound 1 µM, first compound 0.1 µM
# [21] = second compound 1 µM, first compound 0.316 µM
# [22] = second compound 1 µM, first compound 1 µM
# [23] = second compound 1 µM, first compound 3.16 µM
# [24] = second compound 1 µM, first compound 10 µM
# [25] = second compound 3.16 µM, first compound 0.0316 µM
# [26] = second compound 3.16 µM, first compound 0.1 µM
# [27] = second compound 3.16 µM, first compound 0.316 µM
# [28] = second compound 3.16 µM, first compound 1 µM
# [29] = second compound 3.16 µM, first compound 3.16 µM
# [30] = second compound 3.16 µM, first compound 10 µM
# [31] = second compound 10 µM, first compound 0.0316 µM
# [32] = second compound 10 µM, first compound 0.1 µM
# [33] = second compound 10 µM, first compound 0.316 µM
# [34] = second compound 10 µM, first compound 1 µM
# [35] = second compound 10 µM, first compound 3.16 µM
# [36] = second compound 10 µM, first compound 10 µM
structure (smiles),measurement,setting,value
CC1(C)CCC(CN2CCN(c3ccc(C(=O)NS(=O)(=O)c4ccc(NCC5CCOCC5)c([N+](=O)[O-])c4)c(Oc4cnc5[nH]ccc5c4)c3)CC2)=C(c2ccc(Cl)cc2)C1 + Cc1nc(NC(=O)N2CCCC2C(N)=O)sc1-c1ccnc(C(C)(C)C(F)(F)F)c1,IC50,second compound 0.0316 µM,4.01 µM
same,IC50,second compound 0.1 µM,4.59 µM
same,IC50,second compound 0.316 µM,3.26 µM
same,IC50,second compound 1 µM,3.8 µM
same,IC50,second compound 3.16 µM,2.12 µM
same,IC50,second compound 10 µM,< 0.0316 µM
same,"viability, T/C",[1],93.8%
same,"viability, T/C",[2],110%
same,"viability, T/C",[3],85.9%
same,"viability, T/C",[4],103%
same,"viability, T/C",[5],61%
same,"viability, T/C",[6],8.14%
same,"viability, T/C",[7],85.3%
same,"viability, T/C",[8],92.4%
same,"viability, T/C",[9],80.2%
same,"viability, T/C",[10],104%
same,"viability, T/C",[11],69.9%
same,"viability, T/C",[12],8.59%
same,"viability, T/C",[13],110%
same,"viability, T/C",[14],105%
same,"viability, T/C",[15],97.5%
same,"viability, T/C",[16],88.7%
same,"viability, T/C",[17],50.2%
same,"viability, T/C",[18],7.04%
same,"viability, T/C",[19],99.7%
same,"viability, T/C",[20],72.3%
same,"viability, T/C",[21],99.9%
same,"viability, T/C",[22],85.4%
same,"viability, T/C",[23],58.1%
same,"viability, T/C",[24],7.9%
same,"viability, T/C",[25],77.8%
same,"viability, T/C",[26],61.8%
same,"viability, T/C",[27],54%
same,"viability, T/C",[28],66.3%
same,"viability, T/C",[29],43.3%
same,"viability, T/C",[30],9.97%
same,"viability, T/C",[31],35.2%
same,"viability, T/C",[32],27.1%
same,"viability, T/C",[33],35.2%
same,"viability, T/C",[34],32.4%
same,"viability, T/C",[35],24.9%
same,"viability, T/C",[36],8.18%
CCCS(=O)(=O)Nc1ccc(F)c(C(=O)c2c[nH]c3ncc(-c4ccc(Cl)cc4)cc23)c1F + Cc1nc(NC(=O)N2CCCC2C(N)=O)sc1-c1ccnc(C(C)(C)C(F)(F)F)c1,IC50,second compound 0.0316 µM,5.12 µM
same,IC50,second compound 0.1 µM,3.97 µM
same,IC50,second compound 0.316 µM,3.55 µM
same,IC50,second compound 1 µM,1.44 µM
same,IC50,second compound 3.16 µM,1.78 µM
same,IC50,second compound 10 µM,< 0.0316 µM
same,"viability, T/C",[1],89.5%
same,"viability, T/C",[2],95.7%
same,"viability, T/C",[3],91.2%
same,"viability, T/C",[4],104%
same,"viability, T/C",[5],76.8%
same,"viability, T/C",[6],12.9%
same,"viability, T/C",[7],92.8%
same,"viability, T/C",[8],97.5%
same,"viability, T/C",[9],93.6%
same,"viability, T/C",[10],97%
same,"viability, T/C",[11],59.5%
same,"viability, T/C",[12],11.6%
same,"viability, T/C",[13],103%
same,"viability, T/C",[14],86.5%
same,"viability, T/C",[15],80.5%
same,"viability, T/C",[16],105%
same,"viability, T/C",[17],54.6%
same,"viability, T/C",[18],9.77%
same,"viability, T/C",[19],113%
same,"viability, T/C",[20],76.1%
same,"viability, T/C",[21],63.9%
same,"viability, T/C",[22],70.8%
same,"viability, T/C",[23],49.3%
same,"viability, T/C",[24],9.67%
same,"viability, T/C",[25],72.3%
same,"viability, T/C",[26],61%
same,"viability, T/C",[27],67.9%
same,"viability, T/C",[28],62.9%
same,"viability, T/C",[29],36.9%
same,"viability, T/C",[30],10%
same,"viability, T/C",[31],43%
same,"viability, T/C",[32],28.2%
same,"viability, T/C",[33],36.4%
same,"viability, T/C",[34],31.1%
same,"viability, T/C",[35],26.2%
same,"viability, T/C",[36],7.64%
CNC(=O)c1ccc(N2C(=S)N(c3ccc(C#N)c(C(F)(F)F)c3)C(=O)C2(C)C)cc1F + Cc1nc(NC(=O)N2CCCC2C(N)=O)sc1-c1ccnc(C(C)(C)C(F)(F)F)c1,IC50,second compound 0.0316 µM,> 10 µM
same,IC50,second compound 0.1 µM,> 10 µM
same,IC50,second compound 0.316 µM,> 10 µM
same,IC50,second compound 1 µM,> 10 µM
same,IC50,second compound 3.16 µM,4.9 µM
same,IC50,second compound 10 µM,< 0.0316 µM
same,"viability, T/C",[1],96.8%
same,"viability, T/C",[2],97.2%
same,"viability, T/C",[3],83.9%
same,"viability, T/C",[4],114%
same,"viability, T/C",[5],97.4%
same,"viability, T/C",[6],62.5%
same,"viability, T/C",[7],92.4%
same,"viability, T/C",[8],101%
same,"viability, T/C",[9],96.2%
same,"viability, T/C",[10],106%
same,"viability, T/C",[11],82.8%
same,"viability, T/C",[12],52.2%
same,"viability, T/C",[13],99.8%
same,"viability, T/C",[14],78.2%
same,"viability, T/C",[15],73.3%
same,"viability, T/C",[16],103%
same,"viability, T/C",[17],74.6%
same,"viability, T/C",[18],59%
same,"viability, T/C",[19],97%
same,"viability, T/C",[20],76.9%
same,"viability, T/C",[21],67.4%
same,"viability, T/C",[22],90.5%
same,"viability, T/C",[23],59.2%
same,"viability, T/C",[24],58%
same,"viability, T/C",[25],79.8%
same,"viability, T/C",[26],64.5%
same,"viability, T/C",[27],65.3%
same,"viability, T/C",[28],74.8%
same,"viability, T/C",[29],49.4%
same,"viability, T/C",[30],42.5%
same,"viability, T/C",[31],39.8%
same,"viability, T/C",[32],28.3%
same,"viability, T/C",[33],35.4%
same,"viability, T/C",[34],29.4%
same,"viability, T/C",[35],25.2%
same,"viability, T/C",[36],25.6%
